The numbers were not newly measured in patent publication EP3581172B1, “A PHARMACEUTICAL COMPOSITION WITH ENHANCED BIOAVAILABILITY CONTAINING A MEDICAL HERBAL EXTRACT” (TFLL Pharmaceutical Food Supplements and Cosmetic Products …, priority 2018, dated 2019), which cites them from elsewhere.

The test system of series [1] is HCT116 cells.
The subject of series [2] is colon cancer stimulated by 1,2-dimethylhydrazine (DMH).
Series [3] deals with adenoma. The note with it: rats.
Series [4] relates to esophageal carcinogenesis. As to conditions: rats, by diet (500 ppm).
Series [5] concerns breast cancer. As to conditions: topical curcumin ointment; 7 breast cancer patients.

Like-named read-outs stand apart in the source and are kept apart here.

For the compound `COc1ccc(/C=C/C(=O)CC(=O)/C=C/c2ccc(OC)c(OC)c2)cc1OC` [dimethoxycurcumin], the “reducing proliferation and stimulating apoptosis, compared to curcumin” value in series [1] is reported as “more effective”.

Consider `COc1cc(CCC(=O)CC(=O)CCc2ccc(O)c(OC)c2)ccc1O` [THC, tetrahydrokurkuminin], for which the “effect on upper and lower half sections of colon crypts” value in series [2] was “significant decrease”.

As for `COc1cc(/C=C/C(=O)CC(=O)/C=C/c2ccc(O)c(OC)c2)ccc1O` [curcumin, (1E,6E)-1,7-bis (4-hydroxy-3-methoxyphenyl)-1,6-heptadiene-3,5-dione], the water solubility entry is recorded as “almost negligible”. Also, the decrease in adenoma in series [3] (by diet 0.2% for 15 weeks) is recorded as 39%. Moreover, the decrease in adenoma in series [3] (by diet 0.5% for 15 weeks) is recorded as 40%. Further, the esophageal carcinogenesis inhibited in series [4] (maintenance dose) is recorded as 33%. Moreover, the esophageal carcinogenesis inhibited in series [4] (onset dose) was 27%. Moreover, in series [5], the “positive responses (significant reduction in lesion size, pain, itching and leaks), share of patients” value was 71%.
